Measured values reported in patent US12338446B2, “Plants having increased tolerance to herbicides” (priority 2015, dated 2025).
Read-outs that look alike come from different tables or passages of the source.

Assays:
[1] = tested on: Transgenic Arabidopsis thaliana plants with wildtype or mutated PPO sequences; assay: Tolerance of transgenic Arabidopsis thaliana plants to PPO-inhibiting herbicides in 48-well plates (growth inhibition); type: in vivo; details: seven to ten days after seeding
Method: Transformed cells are selected in selection media supplemented with 0.5-1.5 μM imazethapyr for 3-4 weeks. Transgenic plantlets are regenerated on plant regeneration media and rooted afterwards. Transgenic plantlets are subjected to TaqMan analysis for the presence of the transgene before being transplanted to potting mixture and grown to maturity in greenhouse. Arabidopsis thaliana are transformed with wildtype or mutated PPO sequences by floral dip method as described by McElver and Singh (WO 2008/124495). Transgenic Arabidopsis plants are subjected to TaqMan analysis for analysis of the number of integration loci. Transformation of Otyza sativa (rice) are done by protoplast transformation as described by Peng et al. (U.S. Pat. No. 6,653,529) TO or T1 transgenic plant of soybean, corn, and rice containing mutated PPO sequences are tested for improved tolerance to PPO-derived herbicides in greenhouse studies and mini-plot studies with the following PPO-inhibiting herbicides: saflufenacil, 1,5-dimethyl-6-thioxo-3-(2,2,7-trifluoro-3-oxo-4-(prop-2-ynyl)-3,4-dihydro-2H-benzo[b][1,4]oxazin-6-yl)-1,3,5-triazinane-2,4-dione (CAS 1258836-72-4), flumioxazin, butafenacil, acifluorfen, lactofen, bifenox, sulfentrazone, and photosynthesis inhibitor diuron as negative control.
Transgenic Arabidopsis thaliana plants are assayed for improved tolerance to saflufenacil, 1,5-dimethyl-6-thioxo-3-(2,2,7-trifluoro-3-oxo-4-(prop-2-ynyl)-3,4-dihydro-2H-benzo[b][1,4]oxazin-6-yl)-1,3,5-triazinane-2,4-dione (CAS 1258836-72-4), flumioxazin, butafenacil, acifluorfen, lactofen, bifenox, sulfentrazone, and photosynthesis inhibitor diuron as negative control in 48-well plates. Therefore, T2 seeds are surface sterilized by stirring for 5 min in ethanol+water (70+30 by volume), rinsing one time with ethanol+water (70+30 by volume) and two times with sterile, deionized water. The seeds are resuspended in 0.1% agar dissolved in water (w/v) Four to five seeds per well are plated on solid nutrient medium consisting of half-strength murashige skoog nutrient solution, pH 5.8 (Murashige and Skoog (1962) Physiologia Plantarum 15: 473-497). Compounds are dissolved in dimethylsulfoxid (DMSO) and added to the medium prior solidification (final DMSO concentration 0.1%). Multi well plates are incubated in a growth chamber at 22° C., 75% relative humidity and 110 μmol Phot*m^−2*s^−1 with 14:10 h light: dark photoperiod. Growth inhibition is evaluated seven to ten days after seeding in comparison to wild type plants.

[2] = tested on: Nicotiana benthamiana leaf discs; assay: PSII yield inhibition (chlorophyll fluorescence, imaging PAM) in transiently transformed tobacco leaf discs; type: cell-based; details: read-out: IC50 of PSII yield inhibition
Description: Transient expression of PPO sequences (e.g. SEQ ID NO: 184) as wildtype or with respective mutations were done as described previously (Voinnet O., et al., 2003, The Plant Journal 33, 949-956). In brief, cloning of GOI and Agrobacterium transformation (strain: GV2260) were done as described in EXAMPLE 5. Young leaves of
Nicotiana benthamiana were infiltrated with transgenic Agrobacterium suspension (OD^600 of 1.0) harboring binary vector constructs containing a GO/gene controlled by a promoter and terminator sequence. 48 h to 72 h after infiltration punches of leave discs (0.75 cm in diameter) were transferred to 6-well plates with medium (half strength Linsmaier-Skoog (Linsmaier and Skoog (1965) Physiol. Plant. 18: 100-127) nutrient solution or water) containing herbicide of interest in different concentrations. […]
Leaf discs, generated as described in EXAMPLE 14, expressing a protein encoded by GOI, were subjected to analysis on improved tolerance to herbicide treatment. For analysis of herbicide damage, chlorophyll fluorescence were identified as indicative marker (Dayan and Zaccaro (2012) Pest. Biochem. Physiol. 102: 189-197). […] PSII yield were measured as per manufacturer instructions. Tolerance factors were calculated based on IC50 values of PSII yield inhibition of transformed versus empty vector-transformed leaf discs. […]

[3] = gene CHLSP_PPO_wt_tpFNR, Chloroflexus sp. (SEQ ID NO: 21)
[4] = gene OPITE_PPO_wt_tpFNR, Opitutus marinus (SEQ ID NO: 9)
[5] = gene RHOMA_PPO_F353V_tpFNR, Rhodotermus marinus (SEQ ID NO: 3 oder 5)
[6] = gene RHOMA_PPO_wt_tpFNR, Rhodotermus marinus (SEQ ID NO: 3 oder 5)
[7] = gene hemG_tpFNR, Escherichia coli (SEQ ID NO: 184)

SMILES	improved tolerance (growth inhibition in comparison to wild type plants) [1, 3]	improved tolerance (growth inhibition in comparison to wild type plants) [1, 4]	improved tolerance (growth inhibition in comparison to wild type plants) [1, 5]	improved tolerance (growth inhibition in comparison to wild type plants) [1, 6]	improved tolerance (growth inhibition in comparison to wild type plants) [1, 7]	IC50 ([2]; empty vector-transformed leaf discs, treated for 48 h) [nM]	improved tolerance (growth inhibition in comparison to wild type plants) ([1]; gene AC IB A_hemJ_wt_tpFNR, Acinetobacter baylyi (SEQ ID NO: 312))	improved tolerance (growth inhibition in comparison to wild type plants) ([1]; gene CALNI_PPO_wt_tpFNR, Calditerrivibrio nitroreducens (SEQ ID NO: 48))	improved tolerance (growth inhibition in comparison to wild type plants) ([1]; gene CANME_PPO_wt_tpFNR, Candidatus methylomirabilis (SEQ ID NO: 54 or 57))	improved tolerance (growth inhibition in comparison to wild type plants) ([1]; gene HYDTH_PPO_wt_tpFNR, Hydrogenobacter thermophilus (SEQ ID NO: 27))	improved tolerance (growth inhibition in comparison to wild type plants) ([1]; gene LARHO_PPO_wt_tpFNR, Laribacter hongkongensis (SEQ ID NO: 34))	IC50 ([2]; 48 h) [nM]
C#CCN1C(=O)C(F)(F)Oc2cc(F)c(-n3c(=O)n(C)c(=S)n(C)c3=O)cc21 [BAS 850H, 1,5-dimethyl-6-thioxo-3-(2,2,7-trifluoro-3-oxo-4-(prop-2-ynyl)-3,4-dihydro-2H-benzo[b][1,4]oxazin-6-yl)-1,3,5-triazinane-2,4-dione]	1500	9	1	1	4433	11	–	–	–	–	–	–
CC(C)N(C)S(=O)(=O)NC(=O)c1cc(-n2c(=O)cc(C(F)(F)F)n(C)c2=O)c(F)cc1Cl [Saflufenacil, saflufenacil]	640	14	1	1	332	–	1	1	1	10	1	110
